The target in experiment [1] is T1, 5-HT2A receptor (Homo sapiens, UniProt P28223).
T1 construct: gene HTR2A; full-length human recombinant receptor in CHO-K1 cells (Ogeda); crude membranes
In words: cell-based. More on the design: species or system CHO-K1; IPOne HTRF agonist assay, IP1 accumulation in adherent transfected cells. As to the method:
The assay was performed on adherent cells. For agonist testing, the medium was removed and 20 μl of assay buffer plus 20 μl of the studied agonist or the reference agonist were added in each well. The plate was incubated for 60 min at 37°C with 5% CO2. IP1‐D2 reagent and anti‐IP1 cryptate reagents were dispensed in the wells, and IP1 concentrations were then measured following the manufacturer instructions (IPOne HTRF assay kit; Cisbio International, Codolet, France). In brief, increasing concentrations of agonists were added to stably transfected cells in buffer in an Optiplate (PerkinElmer Life Sciences). The plates were incubated, and cells were then lysed by the addition of HTRF reagents (IP1‐D2 reagent and anti‐IP1 cryptate reagents) and diluted in lysis buffer, followed by incubation at room temperature. […] Additionally, the reference values obtained were compared to historical values obtained from the same receptor and used to validate the experimental session. […] For the new assays developed in this study (i.e., 5‐ht1E receptor), the two independent pIC50 determined must be concordant with a 1 log unit interval for the assays to be validated. […]

The target of experiment [2] is T1, 5-HT2A receptor. In words: biochemical. The experiment is classed as CHO-K1 membranes. Also on record: radioligand competition binding on cell membranes, filtration and TopCount scintillation counting. As to the method:
Competition binding was performed in duplicate in the wells of a 96‐well plate containing binding buffer (optimized for each receptor), cell membrane extracts (approximately 20,000 cells distributed in the 96‐well plate), radiotracer, and test agonist. Non‐specific binding was determined by co‐incubation with 200‐fold excess of competitor. Cells were incubated and exposed to varying concentrations (1 pM to 10 μM) of a range of displacer agonists (see below). The samples were incubated in a final volume of 0.1 ml and then filtered over Unifilter plates (Perkin Elmer, Massachusetts, USA) pretreated for 2 hr to limit tracer non‐specific binding. Filters were washed five times with 0.5 ml of ice‐cold washing buffer (tris 50 mM pH 7.4) and 50 μl of Microscint 20 (Perkin Elmer) were added to each filter. The plates were incubated 15 min at room temperature on an orbital shaker and then counted with a TopCount™ (Perkin Elmer) for 1 min per well. […] Additionally, the reference values obtained were compared to historical values obtained from the same receptor and used to validate the experimental session. […] For the new assays developed in this study (i.e., 5‐ht1E receptor), the two independent pIC50 determined must be concordant with a 1 log unit interval for the assays to be validated. […]

Experiment [3] deals with T2, 5-ht1E receptor (Homo sapiens, UniProt P28566).
T2 construct: gene HTR1E; full-length human recombinant receptor in CHO-K1 cells (Ogeda); crude membranes
T2 sequence (P28566 whole entry): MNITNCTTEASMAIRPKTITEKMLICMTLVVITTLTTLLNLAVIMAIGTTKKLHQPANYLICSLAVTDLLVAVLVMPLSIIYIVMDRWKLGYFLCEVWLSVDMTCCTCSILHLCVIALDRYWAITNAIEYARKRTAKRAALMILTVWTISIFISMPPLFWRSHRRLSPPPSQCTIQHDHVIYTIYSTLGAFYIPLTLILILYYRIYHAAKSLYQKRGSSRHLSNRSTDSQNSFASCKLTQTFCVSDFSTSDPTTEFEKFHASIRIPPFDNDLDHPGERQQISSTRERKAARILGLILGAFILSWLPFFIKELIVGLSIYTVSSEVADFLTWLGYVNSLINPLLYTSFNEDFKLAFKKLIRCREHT
In words: radioligand competition, CHO-K1 membranes. The format is binding. From the text: radioligand competition, CHO-K1 membranes on 5-ht1E receptor

Experiment [4] addresses T2, 5-ht1E receptor. Put plainly: biochemical. The experiment is classed as CHO-K1 membranes. More on the design: radioligand competition binding on cell membranes, filtration and TopCount scintillation counting. As to conditions: radioligand displacement; read-out: 5‐ht1E / pIC50 (converted). As to the method:
Competition binding was performed in duplicate in the wells of a 96‐well plate containing binding buffer (optimized for each receptor), cell membrane extracts (approximately 20,000 cells distributed in the 96‐well plate), radiotracer, and test agonist. Non‐specific binding was determined by co‐incubation with 200‐fold excess of competitor. Cells were incubated and exposed to varying concentrations (1 pM to 10 μM) of a range of displacer agonists (see below). The samples were incubated in a final volume of 0.1 ml and then filtered over Unifilter plates (Perkin Elmer, Massachusetts, USA) pretreated for 2 hr to limit tracer non‐specific binding. Filters were washed five times with 0.5 ml of ice‐cold washing buffer (tris 50 mM pH 7.4) and 50 μl of Microscint 20 (Perkin Elmer) were added to each filter. The plates were incubated 15 min at room temperature on an orbital shaker and then counted with a TopCount™ (Perkin Elmer) for 1 min per well. […] Additionally, the reference values obtained were compared to historical values obtained from the same receptor and used to validate the experimental session. […] For the new assays developed in this study (i.e., 5‐ht1E receptor), the two independent pIC50 determined must be concordant with a 1 log unit interval for the assays to be validated.

Experiment [5] has as its target T2, 5-ht1E receptor. Put plainly: biochemical. The format is CHO-K1 membranes. Also on record: GTPγS agonist functional assay. The settings on record: GTPγS. From the text: Additionally, the reference values obtained were compared to historical values obtained from the same receptor and used to validate the experimental session. […] For the new assays developed in this study (i.e., 5‐ht1E receptor), the two independent pIC50 determined must be concordant with a 1 log unit interval for the assays to be validated.

Another experiment concerns the target T3, 5-HT2B receptor (Homo sapiens, UniProt P41595).
T3 construct: gene HTR2B; full-length human recombinant receptor in CHO-K1 cells (Ogeda); crude membranes
Put plainly: radioligand competition, CHO-K1 membranes. The format is binding. The source says: radioligand competition, CHO-K1 membranes on 5-HT2B receptor

The target of experiment [6] is T2, 5-ht1E receptor. In words: cell-based. Also on record: species or system CHO-K1; cAMP HTRF agonist assay, Gi coupled receptors, inhibition of stimulated cAMP. The settings on record: cAMP. As to the method: Concentration–response curves were performed in parallel with the agonists. […] After addition of the lysis buffer and 1‐hr incubation, cAMP concentrations were estimated according to the manufacturer specification with the HTRF kit (Cisbio International, Codelet, France). In brief, increasing concentrations of agonists were added to stably transfected cells in buffer in an Optiplate (PerkinElmer Life Sciences, Massachusetts, USA). The plates were incubated, and cells were then lysed by the addition of HTRF reagents (cAMP‐Cryptate and anti‐cAMP‐d2 reagents) and diluted in lysis buffer, followed by incubation at room temperature. […] Additionally, the reference values obtained were compared to historical values obtained from the same receptor and used to validate the experimental session. […] For the new assays developed in this study (i.e., 5‐ht1E receptor), the two independent pIC50 determined must be concordant with a 1 log unit interval for the assays to be validated.

The target of experiment [7] is T4, 5-HT1F receptor (Homo sapiens, UniProt P30939).
T4 construct: gene HTR1F; full-length human recombinant receptor in CHO-K1 cells (Ogeda)
T4 sequence (P30939 1-366): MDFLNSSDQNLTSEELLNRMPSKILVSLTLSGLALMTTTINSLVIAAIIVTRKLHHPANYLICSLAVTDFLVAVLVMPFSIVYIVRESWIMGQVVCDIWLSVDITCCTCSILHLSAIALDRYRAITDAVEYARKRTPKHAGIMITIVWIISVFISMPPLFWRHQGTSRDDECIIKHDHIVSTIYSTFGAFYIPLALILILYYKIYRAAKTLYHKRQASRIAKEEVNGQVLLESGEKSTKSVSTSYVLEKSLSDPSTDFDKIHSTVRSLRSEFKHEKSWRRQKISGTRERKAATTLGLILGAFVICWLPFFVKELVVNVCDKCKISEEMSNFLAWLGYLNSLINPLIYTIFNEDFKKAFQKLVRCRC
In words: cAMP HTRF, stably transfected CHO-K1 cells. The experiment is classed as cell-based. As to conditions: agonist mode; inhibition of stimulated cAMP, […] min, room temperature.

In the next experiment the target is T5, 5-HT1B receptor (Homo sapiens, UniProt P28222).
T5 construct: gene HTR1B; full-length human recombinant receptor in CHO-K1 cells (Ogeda); crude membranes
T5 sequence (P28222 whole entry): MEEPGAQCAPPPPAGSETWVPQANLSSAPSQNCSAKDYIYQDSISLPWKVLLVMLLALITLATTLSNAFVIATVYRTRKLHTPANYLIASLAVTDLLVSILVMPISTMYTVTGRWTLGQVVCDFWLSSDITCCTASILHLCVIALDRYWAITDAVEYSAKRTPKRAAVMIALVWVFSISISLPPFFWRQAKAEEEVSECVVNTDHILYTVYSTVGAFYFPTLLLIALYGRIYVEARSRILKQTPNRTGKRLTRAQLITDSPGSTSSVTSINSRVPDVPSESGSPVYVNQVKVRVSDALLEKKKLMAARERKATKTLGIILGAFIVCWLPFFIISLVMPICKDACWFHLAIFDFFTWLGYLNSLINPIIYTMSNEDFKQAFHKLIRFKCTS
Put plainly: radioligand competition, CHO-K1 membranes. As to conditions: radioligand listed in supplement Table S1. The format is binding. The source says: radioligand competition, CHO-K1 membranes on 5-HT1B receptor

For experiment [8], the target named is T4, 5-HT1F receptor. Put plainly: radioligand competition, CHO-K1 membranes. The format is binding. The settings on record: radioligand listed in supplement Table S1.
A further experiment has as its target T6, 5-HT1D receptor (Homo sapiens, UniProt P28221).
T6 construct: gene HTR1D; full-length human recombinant receptor in CHO-K1 cells (Ogeda); crude membranes
In words: radioligand competition, CHO-K1 membranes. The format is binding. As to conditions: radioligand listed in supplement Table S1. The source says:
radioligand competition, CHO-K1 membranes on 5-HT1D receptor

The target of the next experiment is T7, 5-HT1A receptor (Homo sapiens, UniProt P08908).
T7 construct: gene HTR1A; full-length human recombinant receptor in CHO-K1 cells (Ogeda); crude membranes
T7 sequence (P08908 1-422): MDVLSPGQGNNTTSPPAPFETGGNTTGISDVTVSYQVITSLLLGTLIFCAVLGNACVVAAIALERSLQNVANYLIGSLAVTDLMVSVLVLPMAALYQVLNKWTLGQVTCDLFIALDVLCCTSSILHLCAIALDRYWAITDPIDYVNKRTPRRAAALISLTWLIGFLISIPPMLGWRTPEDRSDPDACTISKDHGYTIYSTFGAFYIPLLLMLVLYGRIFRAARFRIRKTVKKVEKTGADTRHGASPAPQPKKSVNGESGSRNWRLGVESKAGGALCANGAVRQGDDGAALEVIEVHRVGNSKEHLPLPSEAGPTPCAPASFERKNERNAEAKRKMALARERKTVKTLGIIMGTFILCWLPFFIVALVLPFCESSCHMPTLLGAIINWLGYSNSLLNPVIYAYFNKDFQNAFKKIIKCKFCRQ
In words: radioligand competition, CHO-K1 membranes. The experiment is classed as binding. The settings on record: radioligand listed in supplement Table S1. The source says:
radioligand competition, CHO-K1 membranes on 5-HT1A receptor

[9] abbreviates: IP, read-out: 5‐HT2A / IP (converted).
Setting [10] is: radioligand displacement, read-out: 5‐HT2A / pIC50 (converted).
The mark [11] stands for this setting: radioligand displacement, read-out: 5‐HT2A / pKi (converted).
Setting [12] is: radioligand listed in supplement Table S1.

Structures can show the parent of a compound that is named as a salt. Where two headings read alike, the source gives them in different places.

T1 sequence (P28223 whole entry): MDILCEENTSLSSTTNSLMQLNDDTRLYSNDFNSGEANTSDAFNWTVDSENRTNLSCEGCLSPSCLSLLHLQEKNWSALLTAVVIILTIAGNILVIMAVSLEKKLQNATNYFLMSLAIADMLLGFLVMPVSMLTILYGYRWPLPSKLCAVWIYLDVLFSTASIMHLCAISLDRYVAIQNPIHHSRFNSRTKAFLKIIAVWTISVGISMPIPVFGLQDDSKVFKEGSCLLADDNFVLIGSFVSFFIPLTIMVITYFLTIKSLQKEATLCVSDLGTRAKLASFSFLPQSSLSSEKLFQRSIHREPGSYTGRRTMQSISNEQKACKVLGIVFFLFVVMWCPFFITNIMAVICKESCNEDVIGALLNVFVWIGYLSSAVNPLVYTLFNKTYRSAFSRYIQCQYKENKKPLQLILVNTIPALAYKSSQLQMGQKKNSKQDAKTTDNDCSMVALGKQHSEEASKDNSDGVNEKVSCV
T3 sequence (P41595 whole entry): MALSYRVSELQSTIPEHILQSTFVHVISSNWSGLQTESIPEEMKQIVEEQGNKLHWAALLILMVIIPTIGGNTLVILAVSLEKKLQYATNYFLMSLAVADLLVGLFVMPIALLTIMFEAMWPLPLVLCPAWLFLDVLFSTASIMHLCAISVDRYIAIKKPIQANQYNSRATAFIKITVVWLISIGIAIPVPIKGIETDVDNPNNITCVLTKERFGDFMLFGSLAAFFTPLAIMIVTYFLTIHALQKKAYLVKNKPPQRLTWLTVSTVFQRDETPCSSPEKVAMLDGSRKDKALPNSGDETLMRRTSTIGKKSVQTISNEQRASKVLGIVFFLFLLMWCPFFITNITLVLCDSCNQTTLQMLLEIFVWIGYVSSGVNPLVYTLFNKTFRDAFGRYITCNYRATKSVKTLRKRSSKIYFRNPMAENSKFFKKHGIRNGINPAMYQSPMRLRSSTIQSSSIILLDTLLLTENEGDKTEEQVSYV
T6 sequence (P28221 whole entry): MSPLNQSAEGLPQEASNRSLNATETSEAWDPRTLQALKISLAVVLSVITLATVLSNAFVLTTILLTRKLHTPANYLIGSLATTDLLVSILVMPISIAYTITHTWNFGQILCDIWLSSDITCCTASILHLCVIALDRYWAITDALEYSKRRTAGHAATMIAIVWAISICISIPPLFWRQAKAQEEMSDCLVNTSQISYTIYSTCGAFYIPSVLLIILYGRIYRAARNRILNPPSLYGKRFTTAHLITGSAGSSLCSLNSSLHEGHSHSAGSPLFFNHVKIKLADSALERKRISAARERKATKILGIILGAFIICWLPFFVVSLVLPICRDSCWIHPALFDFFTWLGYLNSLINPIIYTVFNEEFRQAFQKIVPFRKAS

For `CN(C)CCc1c[nH]c2ccc(C[C@H]3COC(=O)N3)cc12` [Zolmitriptan], on 5-HT2A receptor [1] (setting [9]), the EC50 is above 10 µM. At 5-HT2A receptor [2] (setting [10]), the IC50 was above 10 µM. Moreover, the Ki on 5-HT2A receptor [2] (setting [11]) is above 10 µM.
Regarding `CN(C)CCc1c[nH]c2ccc(Cn3cncn3)cc12` [Rizatriptan benzoate], the EC50 at 5-HT2A receptor [1] was above 10 µM. Besides, on 5-HT2A receptor [2], the IC50 is above 10 µM and the Ki was above 10 µM.
`CNS(=O)(=O)Cc1ccc2[nH]cc(CCN(C)C)c2c1` [Sumatriptan succinate]: the values for the Ki at 5-ht1E receptor [3] (read-out: 5-ht1E / pKi (converted)) and on 5-HT2B receptor (read-out: / pKi (converted)) were 1.91 µM and above 10 µM, respectively. In addition, at 5-ht1E receptor [4], the IC50 is 3.8 µM. In addition, the values for the EC50 on 5-ht1E receptor [5] and on 5-ht1E receptor [6] were 1.62 µM and 1.02 µM, respectively.
On to `CN1CCC(c2c[nH]c3ccc(NC(=O)c4ccc(F)cc4)cc23)CC1` [LY334370 hydrochloride], for which the EC50 at 5-HT2A receptor [1] (setting [9]) is above 10 µM. Besides, the IC50 at 5-HT2A receptor [2] (setting [10]) is 7.76 µM.
As to `c1ccc2c(c1)CC[C@H](CNCCCNC1=NCCCN1)O2` [Alniditan dihydrochloride], on 5-HT2A receptor [1] (setting [9]), the EC50 was above 10 µM. Besides, the IC50 at 5-HT2A receptor [2] (setting [10]) is above 10 µM.
With `CN(C)CCc1c[nH]c2ccc(CS(=O)(=O)N3CCCC3)cc12` [Almotriptan malate], the “5-ht1E / pKi” value at 5-ht1E receptor [3] (setting [12]) was < 5 -log M. The “5-HT1F / cAMP” value on 5-HT1F receptor [7] is 7.79 -log M. The “5-HT1B / pKi” value on 5-HT1B receptor is reported as 8.45 -log M. Further, at 5-HT2A receptor [1] (setting [9]), the EC50 is above 10 µM. For the same compound, the “5-HT1F / pKi” value on 5-HT1F receptor [8] is on record as 7.57 -log M. The “5-HT1D / pKi” value at 5-HT1D receptor is recorded as 8.26 -log M. Moreover, the IC50 on 5-HT2A receptor [2] (setting [10]) was above 10 µM. Besides, the Ki at 5-HT2A receptor [2] (setting [11]) was above 10 µM. Besides, the “/ pKi” value on 5-HT2B receptor (setting [12]) is on record as < 5 -log M. The “5-HT1A / pKi” value on 5-HT1A receptor is given as 6.73 -log M.

The values above are taken from article PMC6965684, “Characterization of binding, functional activity, and contractile responses of the selective 5‐HT1F receptor agonist lasmiditan” (British Journal of Pharmacology, 2019).
